Holding throughout (assay): NCI-60 cell line screen, 48 h
For assay [1], the system named is NCI-H460 lung.
Assay [2] concerns TK-10 renal.
For assay [3], the system named is RXF 393 renal.
For assay [4], the system named is SNB-75 CNS.
Assay [5] deals with EKVX NSCLC.
In assay [6] the test system is HOP-62 NSCLC.
Assay [7] concerns A549 NSCLC.
Assay [8] deals with UO-31 renal.
Assay [9] deals with NCI-H522 lung.
Assay [10] relates to HL-60(TB) leukemia.

“And” between values parts separate entries of the source, which are not always exact repeats. Equal entries are not always repeated.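 In this assay, cells in 96-well plates receive the compound at five concentrations for 48 hours. Endpoints are linearly interpolated between the surrounding concentrations. GI50: concentration for 50% inhibition of growth. TGI marks complete inhibition of growth.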

Take `NC(CCSCC(F)(F)F)C(=O)O` (stereo not drawn): the TGI in assay [1], in [2], in assay [3], in assay [4], in [5] and in assay [6] was > 100 µM each time. For the same compound, the TGI in assay [7], in [8], in assay [9] and in assay [10] was > 100 µM each time.

With `C[N+]1=C(c2cccnc2/C=N/O)OCC1(C)C`, the TGI in assay [1], in assay [2], in [3], in assay [4], in assay [5] and in [6] was > 100 µM in each case. Besides, the TGI in [7], in assay [8], in [9] and in [10] was > 100 µM throughout.

Take `O=c1cc(-c2ccc(Cl)cc2)[nH]c2ccccc12`: the GI50 in assay [1] is 39.6 µM; in assay [2] it was > 100 µM; in assay [3] it was 45.9 µM; in assay [4], 37.4 µM; in assay [5], 51.4 µM; in assay [6], 61.4 µM. Also, the GI50 is > 100 µM in assay [7], > 100 µM in [8], 59.6 µM in assay [9] and 5.62 µM in [10]. Besides, the TGI in assay [1], in [2], in assay [3], in assay [4], in [5] and in [6] was > 100 µM throughout. Moreover, the TGI in assay [7], in assay [8], in assay [9] and in [10] was > 100 µM each time.

`O=C1Cc2c(-c3ccccc3)cc(-c3ccccc3)nc2-c2ccccc2N1`: the TGI is 29.6 µM in [1]; 5.68 µM in assay [2]; > 100 µM in assay [3]; 7.71 µM in [4]; 80.3 µM in [5]; 7.73 µM in assay [6]. For the same compound, the TGI was 26.6 µM in assay [7], 11.4 µM in assay [8], 30.2 µM in assay [9] and > 100 µM in assay [10]. Besides, the GI50 in assay [2] is 2.48 µM.

`COC(=O)c1cc(-c2ccc3ccccc3c2)[nH]c(=O)c1C#N`: the TGI in assay [1], in assay [2], in assay [3], in [4], in assay [5] and in [6] was > 100 µM in each case. For the same compound, the TGI in assay [7] is > 100 µM; in assay [8], > 100 µM; in assay [9], > 100 µM; in assay [10], 38.7 µM.

On to `Cc1cccc(C(C)(C)C)c1NC(=O)C(C#N)C1=C(Cl)C(=O)c2ccccc2C1=O` (stereo not drawn), for which the TGI in assay [1] amounted to 38.5 µM; in assay [2], 33.3 µM; in [3], 30.6 µM; in [4], 27.6 µM; in [5], 17.1 µM; in assay [6], 32.2 µM. The TGI in [7] came out at 46.7 µM; in [8] it was 27.9 µM; in assay [9] it was 26.9 µM; in [10], 26 µM.

As to `COc1ccc(C(=O)/C=C/c2sc(Cl)nc2Cl)cc1`, the GI50 in assay [1] is 3.17 µM; in assay [2] it was 4.57 µM; in assay [3] it was 1.28 µM; in [4], 2.56 µM; in assay [5], 3.67 µM; in assay [6] it was 4.59 µM. The GI50 in [7] is 3.72 µM; in assay [8] it was 1.45 µM; in assay [9], 0.452 µM; in assay [10], 1.95 µM. Also, the TGI in [1] was 10.6 µM; in assay [2] it was 30.3 µM; in assay [3] it was 3.02 µM; in assay [4] it was 8.29 µM; in assay [5], 14.8 µM; in assay [6] it was 21.2 µM. The TGI in [7] was 19.5 µM; in assay [8] it was 2.9 µM; in assay [9], 4.85 µM; in [10], 4.63 µM.

With `O=C(COc1ccc(/C=C2\Oc3ccc4ccccc4c3C2=O)cc1)c1ccc([N+](=O)[O-])cc1`, the GI50 was 16.5 µM in assay [1]; 16.6 µM in assay [2]; 8.55 µM in assay [3]; 1.47 µM in [4]; 47.6 µM in assay [5]; 26.7 µM in [6]. For the same compound, the GI50 in assay [7] was 45 µM; in assay [8], 10.6 µM; in [9], 2.04 µM; in [10], 2.61 µM. Also, the TGI is 40.2 µM in assay [1]; 49.3 µM in assay [2]; 60.5 µM in [3]; 13.6 µM in assay [4]; > 100 µM in assay [5]; 61.6 µM in assay [6]. The TGI is > 100 µM in assay [7], 39.3 µM in [8], 5.41 µM in [9] and 16.2 µM in assay [10].

As to `N#C/C(=C\c1ccc(O)c(O)c1)C(=O)NCc1ccc(C(F)(F)F)cc1`, the GI50 is 6.87 µM in assay [1]; 12.2 µM in assay [3]; 13.3 µM in assay [4]; 19.7 µM in assay [5]; 9.48 µM in assay [6]; 10.9 µM in assay [7]. The results for the GI50 in assay [8], in assay [9] and in assay [10] were 4.62 µM, 3.06 µM and 11.6 µM, respectively. In addition, the TGI in assay [1] is > 43 µM; in assay [2], 10.4 µM; in assay [3], 41 µM; in assay [4], 55.7 µM; in assay [5] it was > 61.8 µM; in assay [6], 26.9 µM. The TGI in assay [7] was 53.5 µM; in assay [8] it was 18 µM; in assay [9] it was 19.6 µM; in assay [10], > 66.5 µM.

Take `O=C(Nc1cccc(C(F)(F)F)c1)C(=O)C(C(=O)c1ccc(Cl)c(Cl)c1)C1OC(=O)c2ccccc21` (stereo not drawn): the TGI is > 100 µM in [1]; > 100 µM in assay [2]; 41.7 µM in [3]; 92.3 µM in assay [4]; > 100 µM in assay [5]; > 100 µM in [6]. The TGI in [7], in assay [8], in [9] and in assay [10] was > 100 µM in each case.

For the compound `c1ccc2c(c1)[nH]c1cnc3c4ncccc4[nH]c3c12`, the TGI in assay [1], in assay [2], in [3], in assay [4], in [5] and in assay [6] was > 100 µM throughout. The TGI in assay [7], in [8], in assay [9] and in assay [10] was > 100 µM throughout.

Turning to `COc1ccc(-c2nn(-c3cccc(Cl)c3)cc2/C=C2\NC(=S)N(c3ccc(Cl)cc3)C2=O)cc1`, the GI50 in assay [1] was 4.7 µM; in assay [2], 6.37 µM; in assay [3] it was 3.02 µM; in assay [4], 0.95 µM; in assay [5] it was 4.32 µM; in assay [6] it was 3.91 µM. The GI50 was 3.35 µM in assay [7], 8.53 µM in assay [8], 1.98 µM in [9] and 8.61 µM in assay [10]. In addition, the TGI was 18.4 µM in assay [1]; 16 µM in [2]; 9.97 µM in assay [3]; 4.47 µM in [4]; 15.8 µM in assay [5]; 7.83 µM in assay [6]. In addition, the TGI was 9.73 µM in [7], > 25 µM in assay [8], 6.21 µM in assay [9] and > 25 µM in assay [10].

Consider `Cc1nc2ccccn2c1NC(=O)NN1C(=O)CSC1c1ccc(Cl)cc1` (stereo not drawn), for which the GI50 in assay [1], in assay [2], in assay [3], in [4], in assay [5] and in assay [6] was > 100 µM each time. The GI50 in [7], in assay [8], in assay [9] and in assay [10] was > 100 µM throughout. In addition, the TGI in assay [1], in [2], in assay [3], in assay [4], in assay [5] and in assay [6] was > 100 µM in each case. Moreover, the TGI in [7], in assay [8], in [9] and in [10] was > 100 µM in each case.

As for `CCOC(=O)c1oc2c(OC)ccc3c2c1CCC3`, the TGI in assay [1], in [2], in assay [3], in [4], in assay [5] and in assay [6] was > 100 µM in each case. Moreover, the TGI in [7], in [8], in assay [9] and in assay [10] was > 100 µM each time.

For `O=C(CCC(=O)Nc1ccccc1C(F)(F)F)N/N=C1\C(=N\NC(=O)CCC(=O)Nc2ccccc2C(F)(F)F)C(c2ccc3c(c2)OCO3)Oc2ccccc21` (stereo not drawn), the TGI is > 100 µM in assay [1]; > 100 µM in [2]; > 71.7 µM in [3]; 43.2 µM in assay [4]; > 100 µM in assay [5]; 56.3 µM in assay [6]. Further, the TGI in assay [7] was > 100 µM; in assay [8] it was > 100 µM; in assay [9], > 72.8 µM; in assay [10] it was > 100 µM.

On to `CN(C)c1ccc(C(=S)c2ccc(N(C)C)cc2)cc1`, for which the GI50 in assay [1] was 3.97 µM; in assay [2] it was 13.8 µM; in assay [3] it was 4.81 µM; in [4], 5.28 µM; in assay [5], 16.5 µM; in [6], 5.09 µM. Further, the GI50 is 7.81 µM in assay [7], 8.92 µM in [8], 2.56 µM in [9] and 4.17 µM in assay [10]. Moreover, the TGI was > 100 µM in assay [1]; > 100 µM in assay [2]; 42.9 µM in assay [3]; 40.2 µM in [4]; > 100 µM in assay [5]; > 100 µM in assay [6]. The TGI in [7] was > 100 µM; in assay [8] it was > 100 µM; in [9], 9.31 µM; in assay [10] it was > 100 µM.

`NCCOc1ccc(/C(=C(/Cl)c2ccccc2)c2ccccc2)cc1`: the TGI was determined as 21.6 µM in assay [1]; 26.2 µM in assay [2]; 13.8 µM in assay [3]; 24.1 µM in assay [4]; 30.1 µM in [5]; 32.7 µM in assay [6]. Besides, the TGI in [7] is 31.5 µM; in [8], 21.4 µM; in assay [9], 26.4 µM; in [10], 7.61 µM.

For `COc1cc2c(Oc3ccc(NC(=O)C4(C(=O)Nc5ccc(F)cc5)CC4)cc3F)ccnc2cc1OCCCN1CCOCC1`, the GI50 in [1] is 0.521 µM and 0.575 µM; in [2] it was 1.03 µM and 1.36 µM; in assay [3], 0.468 µM and 0.661 µM; in assay [4], 0.175 µM and 0.15 µM; in assay [5] it was 1.16 µM and 1.93 µM; in assay [6], 0.798 µM and 0.573 µM. Besides, the GI50 is 0.556 µM and 0.625 µM in assay [7]; 0.984 µM and 0.654 µM in assay [8]; 0.983 µM in assay [9]; 0.164 µM and 0.389 µM in assay [10]. Besides, the TGI in assay [1] was 2.05 µM and 2.51 µM; in assay [2], 2.57 µM and 4.42 µM; in [3] it was 1.77 µM and 1.9 µM; in assay [4] it was 1.88 µM and 2.16 µM; in [5] it was 4.73 µM and > 10 µM; in assay [6], 2.17 µM and 4.15 µM. Also, the TGI in assay [7] was 1.88 µM and 2.2 µM; in assay [8], 2.61 µM and 2.04 µM; in assay [9], 2.87 µM; in [10], 2.02 µM and 2.34 µM.

For `CC(=O)N[C@H](C)[C@@H](O)[C@@H](C)[C@@H]1OC(=O)/C=C/C=C(C)\C=C\[C@]2(C)C[C@@H](NS(C)(=O)=O)C=C[C@@H]2/C=C(C)/C=C/[C@H]1C`, the GI50 in assay [1] was 0.00812 µM and 0.0174 µM; in assay [2] it was 0.045 µM and 0.276 µM; in [3], 0.00352 µM and 0.00846 µM; in assay [4] it was 0.00177 µM and 0.00888 µM; in assay [6], 0.0103 µM and 0.0205 µM; in assay [7], 0.0159 µM and 0.00435 µM. For the same compound, the GI50 in assay [8] was 0.00495 µM and 0.00725 µM; in [9], 0.0251 µM and 0.0451 µM; in [10], 0.00579 µM and 0.0124 µM. The TGI in [1] is > 43.5 µM; in [2] it was > 43.5 µM; in assay [3], 31.1 µM; in assay [5], > 43.5 µM; in [6], > 43.5 µM; in [7] it was > 43.5 µM. Besides, the TGI in assay [8], in assay [9] and in [10] was > 43.5 µM throughout.

The values above are taken from PubChem BioAssay (NCI).
